A short description of data set [1]: Solubility of insulin, FDKP and insulin plus FDKP between pH 6.0 and pH 7.4 (Example 9). The data set is classed as physicochemical. How it is done: A standard solution of insulin (using recombinant human insulin) was made in 0.05N aqueous HCl. An aliquot (1 mg) of the solution was transferred into 4 different Eppendorf tubes and 9 mg of solid Na2-FDKP was added into each tube. A milky suspension formed immediately. The pH was adjusted to the values between pH 6.0 and pH 7.4 using 0.1N aqueous NaOH. Samples of insulin alone were compared to FDKP alone and to the solution of insulin and FDKP. The insulin alone samples were all insoluble. […] All samples containing 9 mg/ml FDKP and 1 mg/ml insulin were soluble at all pH values.

A further data set is described as follows: FDKP micelle formation. Type of data set: physicochemical. The conditions noted are these: FIG. 3. How it is done:
FIG. 3 is a graph depicting the concentration of FDKP for forming micelles in phosphate buffer at pH 7.4 above 0.03 mg/ml.
Without being restricted to any one mechanism for creating the ultra-fast insulin formulations, a diketopiperazine, for example FDKP, has effects as an absorption enhancer and permeation enhancer, a metal chelator, a surfactant, a bolaamphiphile, and an aggregation inhibitor, and promotes enhanced absorption through a combination of these effects, including enhancing the amount of monomer insulin in solution upon injection. For example, the fumaric acid charges on the FDKP may serve to charge-mask insulin positive charges, reducing the overall charge on the insulin, and making it more likely to be absorbed, especially when formulations have a pH of about 6.0 to about 7.2, as described herein.

In another data set the test system is diabetic minipigs. Put plainly: Glucose response after subcutaneous injection in diabetic minipigs (Example 8). Type of data set: in vivo, Yucatan minipigs. How it is done:
Recombinant human insulin were prepared in ultra-fast acting subcutaneous injectable formulations in aqueous solutions containing FDKP at pH 6.5 and 7.4, as summarized in Table 6. All formulation preparation was conducted in a laminar flow hood and the final solutions were filtered through 0.2 micron filters. Both formulations were injected into the subcutaneous tissue of diabetic minipigs (Yucatan minipigs rendered diabetic by treatment with alloxan).
The glucose response from the pH 6.5 formulation compared to a subcutaneous injection of standard lispro insulin is shown in FIG. 1. […] Time to 50% glucose reduction from the formulation is 30 minutes, while that from standard lispro is 50 minutes.
The glucose response from the […] formulation compared to a subcutaneous injection of the ultra-fast acting pH 6.5 formulation, both containing FDKP, are shown in FIG. 2. […] The strong pH dependency of the absorption rate was not anticipated. While not wanting to be held to a specific mechanism for the rapid absorption, the lower pH solution appears to cause there to be less charge on the FDKP, which would make it more hydrophobic, and therefore more likely to bind tightly to the insulin molecule, thereby reducing the overall charge on insulin, causing there to be more monomers in solution, and enhancing the absorption by several mechanisms.

Read-outs that look alike come from different tables or passages of the source. Where only a bound is given, the exact number is not on record here.

As for `O=C(O)/C=C/C(=O)NCCCCC1NC(=O)C(CCCCNC(=O)/C=C/C(=O)O)NC1=O` (centres unmarked) [FDKP, 2,5-diketo-3,6-di(4-fumarylaminobutyl)piperazine], the solubility entry is reported as “insoluble” in data set [1] (below pH 7.0); “Insoluble” in data set [1] (pH 6.0); “Insoluble” in data set [1] (pH 6.5); “Partial” in data set [1] (pH 7.0, listed as FDKP (9 mg/mL)); “partially soluble” in data set [1] (pH 7.0, listed as FDKP alone); “Soluble” in data set [1] (pH 7.4, listed as FDKP (9 mg/mL)). The solubility result in data set [1] (pH 7.4, listed as FDKP alone) is “soluble”. In the data set “FDKP micelle formation”, the “concentration for forming micelles” value was ≥ 62 µM.
In the case of “Insulin (1 mg/mL): Recombinant human insulin, 1 mg/mL, without FDKP [reference compound]”, the solubility result was “insoluble” in data set [1]; “insoluble” in data set [1] (pH 6); “Insoluble” in data set [1] (pH 6.5); “Insoluble” in data set [1] (pH 7); “Insoluble” in data set [1] (pH 7.4).
Take insulin lispro [standard lispro]: the “Time to 50% glucose reduction” value in the data set on diabetic minipigs was determined as 50 min.

For the origin of these results see patent US20220354782A1, “SUBCUTANEOUSLY INJECTABLE INSULIN AND GLUCAGON FORMULATIONS AND METHODS OF ADMINISTRATION” (CASS PHARMACEUTICALS, INC., priority 2019, published 2022).
